Drawing on patent US9475805B2, “Tricyclic compound” (Kyowa Hakko Kirin Co., Ltd., priority 2008, dated 2016), this text covers EC50 for 22 compounds.

The target in the assay is T1, PPAR γ (Homo sapiens, UniProt P37231).
T1 construct: expressed in transfected cells; host or cells: HEK293EBNA
T1 sequence (P37231 174-475 isoform P37231-2): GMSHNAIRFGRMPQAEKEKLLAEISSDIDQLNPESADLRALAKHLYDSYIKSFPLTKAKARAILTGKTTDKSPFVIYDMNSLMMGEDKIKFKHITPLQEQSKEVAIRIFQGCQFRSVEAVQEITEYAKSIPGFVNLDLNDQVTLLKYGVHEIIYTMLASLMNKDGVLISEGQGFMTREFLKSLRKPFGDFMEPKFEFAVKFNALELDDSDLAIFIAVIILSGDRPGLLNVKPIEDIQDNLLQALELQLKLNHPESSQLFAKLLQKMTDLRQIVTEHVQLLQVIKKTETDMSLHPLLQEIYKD
Nature of the assay: PPAR γ activation action based on transactivation assay of PPAR γ by transient gene transfer (GAL4-PPAR γ chimeric receptor, luciferase reporter, HEK293EBNA cells). Particulars: concentration showing 50% of the compound's own efficacy (maximum activity rate relative to pioglitazone 10 μmol/L = 100%), 24 hr. In kind it is cell-based. The procedure: The agonist activity of compound (I) to PPAR γ was determined by a transactivation assay method using a chimeric nuclear receptor of a DNA binding region of a yeast transcription factor GAL4 and a PPAR γ ligand binding region. Specifically, the PPAR γ agonist activity of compound (I) was evaluated by the following method based on the method of Lehmann et al. (J Biol Chem., 1995, vol. 270, page 12953).
HEK293EBNA cells cultured in Dulbecco's Modified Eagle medium (Invitrogen) containing 10 v/v % fetal calf serum (Invitrogen) were used. 30 mL of the above-mentioned cells (density: 1×10^5 cells/mL) were inoculated in a […] (Iwaki Glass), and cultured overnight. Using SuperFect Transfection Reagent (QIAGEN), a plasmid expressing a GAL4-PPAR γ chimeric nuclear receptor fusing 174-475 amino acids, which are human PPAR γ ligand binding region, and 1-147 amino acids, which are GAL4 DNA binding region, and a reporter plasmid expressing a GAL4 responsive luciferase were transiently introduced into the cells at a proportion of 4:1. After 5 hr from transfection, the cells were detached from the culture dish, and the detached cells (density: 2×10^4 cells/mL) were inoculated by 100 μL in each well of a 96 well white plate (SUMITOMO BAKELITE), and cultured overnight. The medium was removed, compound (I) diluted in various concentrations with serum-free Dulbecco's Modified Eagle medium was added by 100 μL, and the mixture was reacted under a 5% carbon dioxide gas stream (5% CO2) at 37° C. for 24 hr. On the other hand, as a positive control, 10 μmol/L of pioglitazone (100 μL) was added, and the mixture was reacted under a 5% carbon dioxide gas stream (5% CO2) at 37° C. for 24 hr. As a substrate of luciferase, 100 μL of Steady-Glo (Promega) was added to each well and the mixture was thoroughly stirred. Immediately thereafter, the chemical luminescence due to luciferase was measured using TopCount NTX (Packard).
The agonist activity (activity rate (%)) of compound (I) to PPAR γ was calculated according to the following formula, as a relative activity when the agonist activity on addition of pioglitazone (10 μmol/L) was 100%.
As usually defined, the EC50 is the concentration giving half of the maximal effect. The low end stands for higher potency in that assay, the high end for lower potency in that assay. Compound `CCCc1nc2ccccc2n1Cc1ccc2c(c1)CCc1ccccc1/C2=C\c1noc(=O)[nH]1` [Compound 5, (E)-2-(2-Propylbenzimidazol-1-yl)methyl-5-(5-oxo-4,5-dihydro-1,2,4-oxadiazol-3-yl)methylene-10,11-dihydro-5H-dibenzo[a,d]cycloheptene] gave a half-maximal effective concentration (EC50) of 399 nM.

In the case of `CCCc1nc2ccccc2n1Cc1ccc2c(c1)CCc1ccccc1/C2=C\c1n[nH]c(=O)o1` [Compound 7, (E)-2-(2-Propylbenzimidazol-1-yl)methyl-5-(5-oxo-4,5-dihydro-1,3,4-oxadiazol-2-yl)methylene-10,11-dihydro-5H-dibenzo[a,d]cycloheptene], the midpoint of the response, the EC50, lay at 791 nM.

The compound `CCc1nc2c(C)cc(C)nc2n1Cc1ccc2c(c1)CCc1ccccc1/C2=C\c1noc(=S)[nH]1` [Compound 8, (E)-2-(2-Ethyl-5,7-dimethyl-3H-imidazo[4,5-b]pyridin-3-yl)methyl-5-(5-thioxo-4,5-dihydro-1,2,4-oxadiazol-3-yl)methylene-10,11-dihydro-5H-dibenzo[a,d]cycloheptene] returned an EC50 of 175 nM.

`CCCc1nc2c(C)cccc2n1Cc1ccc2c(c1)CCc1ccccc1/C2=C(\C)c1nnn[nH]1` [Compound 17, (Z)-2-(4-Methyl-2-propylbenzimidazol-1-yl)methyl-5-[1-(1H-tetrazol-5-yl)ethylidene]-10,11-dihydro-5H-dibenzo[a,d]cycloheptene] gave an EC50 of 30 nM.

`C/C(=C1\c2ccccc2CCc2cc(Cn3c(C4CC4)nc4c(Cl)cccc43)ccc21)c1noc(=O)[nH]1` [Compound 19, (Z)-2-(4-Chloro-2-cyclopropylbenzimidazol-1-yl)methyl-5-[1-(5-oxo-4,5-dihydro-1,2,4-oxadiazol-3-yl)ethylidene]-10,11-dihydro-5H-dibenzo[a,d]cycloheptene] gave an EC50 of 6.4 nM.

The compound `CCc1nc(-c2ccccc2)cn1Cc1ccc2c(c1)COc1ccccc1/C2=C(\C)c1noc(=O)[nH]1` [Compound 21, (E)-8-(2-Ethyl-4-phenylimidazol-1-yl)methyl-11-[1-(5-oxo-4,5-dihydro-1,2,4-oxadiazol-3-yl)ethylidene]-6,11-dihydrodibenzo[b,e]oxepine] displayed an EC50 of 40 nM.

On to `CCc1nc2ccccc2n1Cc1ccc2c(c1)COc1ccccc1/C2=C(\C)c1noc(=O)[nH]1` [Compound 26, (E)-8-(2-Ethylbenzimidazol-1-yl)methyl-11-[1-(5-oxo-4,5-dihydro-1,2,4-oxadiazol-3-yl)ethylidene]-6,11-dihydrodibenzo[b,e]oxepine], for which it took 17 nM to reach a half-maximal effect (EC50).

Compound `CCCc1nc2ccccc2n1Cc1ccc2c(c1)COc1ccccc1/C2=C(\C)c1noc(=O)[nH]1` [Compound 27, (E)-8-(2-Propylbenzimidazol-1-yl)methyl-11-[1-(5-oxo-4,5-dihydro-1,2,4-oxadiazol-3-yl)ethylidene]-6,11-dihydrodibenzo[b,e]oxepine] came in with an EC50 of 2.6 nM.

In the case of `COCc1nc2ccccc2n1Cc1ccc2c(c1)COc1ccccc1/C2=C(\C)c1noc(=O)[nH]1` [Compound 30, (E)-8-(2-Methoxymethylbenzimidazol-1-yl)methyl-11-[1-(5-oxo-4,5-dihydro-1,2,4-oxadiazol-3-yl)ethylidene]-6,11-dihydrodibenzo[b,e]oxepine], the midpoint of the response, the EC50, lay at 9.8 nM.

With `C/C(=C1/c2ccc(Cn3c(Cc4ccccc4)nc4ccccc43)cc2COc2ccccc21)c1noc(=O)[nH]1` [Compound 33, (E)-8-(2-Benzylbenzimidazol-1-yl)methyl-11-[1-(5-oxo-4,5-dihydro-1,2,4-oxadiazol-3-yl)ethylidene]-6,11-dihydrodibenzo[b,e]oxepine], the EC50 came to 26 nM.

Compound `CCCc1nc2c(C)cccc2n1Cc1ccc2c(c1)COc1ccccc1/C2=C(\C)c1noc(=O)[nH]1` [Compound 35, (E)-8-(2-Propyl-4-methylbenzimidazol-1-yl)methyl-11-[1-(5-oxo-4,5-dihydro-1,2,4-oxadiazol-3-yl)ethylidene]-6,11-dihydrodibenzo[b,e]oxepine] registered a concentration giving a half-maximal response (EC50) of 2.4 nM.

For the compound `CCc1nc2c(C)cc(-c3ccccc3)cc2n1Cc1ccc2c(c1)CCc1ccccc1/C2=C\C#N` [Compound 50, (E)-[2-(2-Ethyl-4-methyl-6-phenylbenzimidazol-1-yl)methyl-10,11-dihydro-5H-dibenzo[a,d]cyclohepten-5-ylidene]acetonitrile], the EC50 came out at 352 nM.

Regarding `Cc1cc(-c2ccccc2)cc2c1nc(C)n2Cc1ccc2c(c1)CCc1ccccc1/C2=C\c1nnn[nH]1` [Compound 54, (E)-2-(2,4-Methyl-6-phenylbenzimidazol-1-yl)methyl-5-(1H-tetrazol-5-yl)methylene-10,11-dihydro-5H-dibenzo[a,d]cycloheptene], the EC50 stood at 54 nM.

Compound `Cc1cc(-c2ccccc2)cc2c1nc(C)n2Cc1ccc2c(c1)CCc1ccccc1/C2=C\C(=O)O` [Compound 55, (E)-[2-(2,4-Dimethyl-6-phenylbenzimidazol-1-yl)methyl-10,11-dihydro-5H-dibenzo[a,d]cyclohepten-5-ylidene]acetic acid] returned an EC50 of 39 nM.

`CCCc1nc2c(C)cc(-c3cccs3)cc2n1Cc1ccc2c(c1)CCc1ccccc1/C2=C\c1nnn[nH]1` [Compound 67, (E)-2-[4-Methyl-2-propyl-6-(2-thienyl)benzimidazol-1-yl]methyl-5-(1H-tetrazol-5-yl)methylene-10,11-dihydro-5H-dibenzo[a,d]cycloheptene] displayed an EC50 of 156 nM.

For the compound `CCCc1nc2c(C)cc(-c3nnco3)cc2n1Cc1ccc2c(c1)CCc1ccccc1/C2=C\c1nnn[nH]1` [Compound 70, (E)-2-[4-Methyl-6-(1,3,4-oxadiazol-2-yl)-2-propylbenzimidazol-1-yl]methyl-5-(1H-tetrazol-5-yl)methylene-10,11-dihydro-5H-dibenzo[a,d]cycloheptene], the EC50 worked out at 156 nM.

Compound `CCc1nc2c(C)cc(C)nc2n1Cc1ccc2c(c1)OCc1ccccc1/C2=C(\C)c1noc(=O)[nH]1` [Compound 76, (Z)-3-(2-Ethyl-5,7-dimethyl-3H-imidazo[4,5-b]pyridin-3-yl)methyl-11-[1-(5-oxo-4,5-dihydro-1,2,4-oxadiazol-3-yl)ethylidene]-6,11-dihydrodibenzo[b,e]oxepine] showed a 50% effective concentration (EC50) of 328 nM.

The compound `CCCc1nc2c(C)cccc2n1C(C)c1ccc2c(c1)CCc1ccccc1/C2=C\c1noc(=O)[nH]1` (stereo not shown) [Compound 85, (E)-2-[1-(2-Propyl-4-methylbenzimidazol-1-yl)ethyl]-5-(5-oxo-4,5-dihydro-1,2,4-oxadiazol-3-yl)methylene-10,11-dihydro-5H-dibenzo[a,d]cycloheptene] registered an EC50 of 27 nM.

In turn, `CCc1nc2c(Cl)cccc2n1C(C)c1ccc2c(c1)CCc1ccccc1/C2=C\c1noc(=O)[nH]1` (stereo not shown) [Compound 87, (E)-2-[1-(4-Chloro-2-ethylbenzimidazol-1-yl)ethyl]-5-(5-oxo-4,5-dihydro-1,2,4-oxadiazol-3-yl)methylene-10,11-dihydro-5H-dibenzo[a,d]cycloheptene] gave an EC50 of 60 nM.

For the compound `CCCc1nc2c(C)cc(-c3ncco3)cc2n1Cc1ccc2c(c1)CCc1ccccc1/C2=C\C(=O)N(C)CC(=O)O` [Compound 95, (E)-2-[N-Methyl 2-({2-[4-methyl-6-(1,3-oxazol-2-yl)-2-propylbenzimidazol-1-yl]methyl-10,11-dihydro-5H-dibenzo[a,d]cyclohepten-5-ylidene}acetamido)]acetic acid], the concentration for a half-maximal effect (EC50) is 31 nM.

As to `CCCc1nc2c(C(C)(C)O)cccc2n1Cc1ccc2c(c1)COc1ccccc1/C2=C(\C)c1noc(=O)[nH]1` [Compound 96, (E)-8-[(4-Hydroxypropan-2-yl)-2-propylbenzimidazol-1-yl]methyl-11-[1-(5-oxo-4,5-dihydro-1,2,4-oxadiazol-3-yl)ethylidene]-6,11-dihydrodibenzo[b,e]oxepine], the concentration for a half-maximal effect (EC50) worked out at 13 nM.

Compound `CCCc1nc2c(C(N)=O)cccc2n1Cc1ccc2c(c1)COc1ccccc1/C2=C(\C)c1noc(=O)[nH]1` [Compound 100, (E)-1-{11-[1-(5-Oxo-4,5-dihydro-1,2,4-oxadiazol-3-yl)ethylidene]-6,11-dihydrodibenzo[b,e]oxepin-8-yl}methyl-2-propylbenzimidazole-4-carboxamide] came in with a concentration giving a half-maximal response (EC50) of 20 nM.
